≈ marks a conversion by molar mass, not a printed value. Calls of active or inactive are those of the source. The rule behind the calls is not given here.
Key:
Staphylococcus aureus [1] = assay: Antibacterial activity against methicillin-resistant Staphylococcus aureus N315 assessed as bacterial growth inhibition by serial dilution method; assay type: functional
Acinetobacter baumannii = assay: Antibacterial activity against Acinetobacter baumannii assessed as bacterial growth inhibition by serial dilution method; assay type: functional
Klebsiella pneumoniae = assay: Antibacterial activity against Klebsiella pneumoniae assessed as bacterial growth inhibition by serial dilution method; assay type: functional
Pseudomonas aeruginosa [2] = assay: Antibacterial activity against Pseudomonas aeruginosa assessed as bacterial growth inhibition by serial dilution method; assay type: functional
Staphylococcus aureus [3] = assay: Antibacterial activity against Staphylococcus aureus assessed as bacterial growth inhibition by serial dilution method; assay type: functional
Staphylococcus aureus [4] = assay: Antibacterial activity against Staphylococcus aureus ATCC 29213 assessed as bacterial growth inhibition by serial dilution method; assay type: functional
Staphylococcus aureus [5] = assay: Antibacterial activity against Staphylococcus aureus ATCC 25923 assessed as bacterial growth inhibition by serial dilution method; assay type: functional
Pseudomonas aeruginosa [6] = assay: Antibacterial activity against Pseudomonas aeruginosa ATCC 27853 assessed as bacterial growth inhibition by serial dilution method; assay type: functional
Enterococcus faecalis [7] = assay: Antibacterial activity against Enterococcus faecalis assessed as bacterial growth inhibition by serial dilution method; assay type: functional
Escherichia coli [8] = assay: Antibacterial activity against Escherichia coli ATCC 25922 assessed as bacterial growth inhibition by serial dilution method; assay type: functional
Escherichia coli [9] = assay: Antibacterial activity against Escherichia coli assessed as bacterial growth inhibition by serial dilution method; assay type: functional
Calf thymus DNA [10] = assay: Binding affinity to calf thymus DNA assessed as reduction in acridine orange-DNA complex formation by competitive binding assay; conditions: Bos taurus
Enterococcus faecalis [11] = assay: Inhibition of biofilm formation in Enterococcus faecalis at 2 ug/ml incubated for 24 hrs by crystal violet staining based analysis relative to control; assay type: functional
Enterococcus faecalis [12] = assay: Potency index, ratio of norfloxacin MIC to test compound MIC for antibacterial activity against Enterococcus faecalis assessed as bacterial growth inhibition by serial dilution method; assay type: functional
Enterococcus faecalis [13] = assay: Bactericidal activity against Enterococcus faecalis assessed as log reduction in bacterial colony count at 1 times MIC measured after 6 hrs; assay type: functional
[14] = Induction of intracellular ROS accumulation in Enterococcus faecalis assessed as fold increase in fluorescence intensity at 8 times MIC by DCFH-DA dye based fluorescence assay; assay type: functional
Enterococcus faecalis [15] = assay: Potency index, ratio of ciprofloxacin MIC to test compound MIC for antibacterial activity against Enterococcus faecalis assessed as bacterial growth inhibition by serial dilution method; assay type: functional
Staphylococcus aureus [16] = assay: Potency index, ratio of norfloxacin MIC to test compound MIC for antibacterial activity against Staphylococcus aureus ATCC 25923 assessed as bacterial growth inhibition by serial dilution method; assay type: functional
[17] = Cytotoxicity against human HaCaT cells assessed as cell viability at 12.5 ug/ml by CCK-8 assay relative to control; assay type: toxicity, cell-based; conditions: at 12.5 µg/mL, read-out: Activity
Calf thymus DNA [18] = assay: Binding affinity to calf thymus DNA assessed as red shift in absorption peak by UV-Vis spectrophotometric analysis; conditions: Bos taurus
Calf thymus DNA [19] = assay: Binding affinity to calf thymus DNA assessed as DNA-compound complex formation by measuring hyperchromicity by UV-Vis spectrophotometric analysis; assay type: tissue-based; conditions: Bos taurus
Calf thymus DNA [20] = assay: Binding affinity to calf thymus DNA assessed as binding constant by UV-Vis spectrophotometric analysis; conditions: Bos taurus
[21] = Cytotoxicity against human HaCaT cells assessed as cell viability at 50 ug/ml by CCK-8 assay relative to control; assay type: toxicity, cell-based; conditions: at 50 µg/mL, read-out: Activity
Aspergillus fumigatus = assay: Antifungal activity against Aspergillus fumigatus assessed as inhibition of fungal growth; assay type: functional
Enterococcus faecalis [22] = assay: Bactericidal activity against Enterococcus faecalis assessed as log reduction in bacterial colony count at 4 times MIC measured after 6 hrs; assay type: functional
Staphylococcus aureus [23] = assay: Potency index, ratio of norfloxacin MIC to test compound MIC for antibacterial activity against Staphylococcus aureus ATCC 29213 assessed as bacterial growth inhibition by serial dilution method; assay type: functional
Candida tropicalis = assay: Antifungal activity against Candida tropicalis assessed as inhibition of fungal growth; assay type: functional
Candida parapsilosis = assay: Antifungal activity against Candida parapsilosis ATCC 22019 assessed as inhibition of fungal growth; assay type: functional; conditions: Lodderomyces parapsilosis
Staphylococcus aureus [24] = assay: Potency index, ratio of norfloxacin MIC to test compound MIC for antibacterial activity against methicillin-resistant Staphylococcus aureus N315 assessed as bacterial growth inhibition by serial dilution method; assay type: functional
Staphylococcus aureus [25] = assay: Potency index, ratio of ciprofloxacin MIC to test compound MIC for antibacterial activity against methicillin-resistant Staphylococcus aureus N315 assessed as bacterial growth inhibition by serial dilution method; assay type: functional

CCc1cnc(N2CCN(c3cc4c(cc3F)c(=O)c(C(=O)O)cn4CC)CC2)nc1
MIC (Staphylococcus aureus [1]): 2 µg/mL (≈ 4.7 µM)
MIC (Acinetobacter baumannii): 128 µg/mL (≈ 301 µM)
MIC (Klebsiella pneumoniae): 2 µg/mL (≈ 4.7 µM)
MIC (Pseudomonas aeruginosa [2]): 2 µg/mL (≈ 4.7 µM)
MIC (Staphylococcus aureus [3]): 8 µg/mL (≈ 18.8 µM)
MIC (Staphylococcus aureus [4]): 64 µg/mL (≈ 150 µM)
MIC (Staphylococcus aureus [5]): 2 µg/mL (≈ 4.7 µM)
MIC (Pseudomonas aeruginosa [6]): 128 µg/mL (≈ 301 µM)
MIC (Enterococcus faecalis [7]): 2 µg/mL (≈ 4.7 µM)
MIC (Escherichia coli [8]): 1 µg/mL (≈ 2.35 µM)
MIC (Escherichia coli [9]): 16 µg/mL (≈ 37.6 µM)

CCn1cc(C(=O)O)c(=O)c2cc(F)c(N3CCN(c4nccc(N)n4)CC3)cc21
Activity (Calf thymus DNA [10]): Active
MIC (Staphylococcus aureus [1]): 1 µg/mL (≈ 2.42 µM)
inhibition at 2 µg/mL (Enterococcus faecalis [11]): 53.9%
Ratio (Enterococcus faecalis [12]): 16
log(activity) (Enterococcus faecalis [13]): 2.5
fold change (FC) [14]: 2.5
MIC (Acinetobacter baumannii): 4 µg/mL (≈ 9.7 µM)
MIC (Klebsiella pneumoniae): 0.5 µg/mL (≈ 1.21 µM)
Ratio (Enterococcus faecalis [15]): 4
MIC (Pseudomonas aeruginosa [2]): 0.25 µg/mL (≈ 0.606 µM)
Ratio (Staphylococcus aureus [16]): 4
viability at 12.5 ug/ml [17]: > 90%
Activity (Calf thymus DNA [18]): Active
Activity (Calf thymus DNA [19]): Active
MIC (Staphylococcus aureus [3]): 1 µg/mL (≈ 2.42 µM)
K (Calf thymus DNA [20]): 1.01 10^5L/mol
viability at 50 ug/ml [21]: 70%
MIC (Staphylococcus aureus [4]): 0.5 µg/mL (≈ 1.21 µM)
MIC (Aspergillus fumigatus): 2 µg/mL (≈ 4.85 µM)
MIC (Staphylococcus aureus [5]): 0.5 µg/mL (≈ 1.21 µM)
log(activity) (Enterococcus faecalis [22]): 3.5
MIC (Pseudomonas aeruginosa [6]): 0.5 µg/mL (≈ 1.21 µM)
Ratio (Staphylococcus aureus [23]): 8
MIC (Enterococcus faecalis [7]): 0.25 µg/mL (≈ 0.606 µM)
MIC (Escherichia coli [8]): 16 µg/mL (≈ 38.8 µM)
MIC (Escherichia coli [9]): 4 µg/mL (≈ 9.7 µM)

COc1cnc(N2CCN(c3cc4c(cc3F)c(=O)c(C(=O)O)cn4C3CC3)CC2)nc1
MIC (Staphylococcus aureus [1]): 32 µg/mL (≈ 72.8 µM)
MIC (Acinetobacter baumannii): 1 µg/mL (≈ 2.28 µM)
MIC (Klebsiella pneumoniae): 16 µg/mL (≈ 36.4 µM)
MIC (Pseudomonas aeruginosa [2]): 64 µg/mL (≈ 146 µM)
MIC (Staphylococcus aureus [3]): 256 µg/mL (≈ 583 µM)
MIC (Candida tropicalis): 2 µg/mL (≈ 4.55 µM)
MIC (Staphylococcus aureus [4]): 2 µg/mL (≈ 4.55 µM)
MIC (Staphylococcus aureus [5]): 8 µg/mL (≈ 18.2 µM)
MIC (Candida parapsilosis): 2 µg/mL (≈ 4.55 µM)
MIC (Pseudomonas aeruginosa [6]): 32 µg/mL (≈ 72.8 µM)
MIC (Enterococcus faecalis [7]): 32 µg/mL (≈ 72.8 µM)
MIC (Escherichia coli [8]): 4 µg/mL (≈ 9.1 µM)
MIC (Escherichia coli [9]): 64 µg/mL (≈ 146 µM)

OC(Cn1cncn1)(Cn1cncn1)c1ccc(F)cc1F [FLUCONAZOLE]
MIC (Aspergillus fumigatus): 256 µg/mL (≈ 836 µM)

Cc1ccnc(N2CCN(c3cc4c(cc3F)c(=O)c(C(=O)O)cn4C3CC3)CC2)n1
MIC (Staphylococcus aureus [1]): 64 µg/mL (≈ 151 µM)
MIC (Acinetobacter baumannii): 2 µg/mL (≈ 4.72 µM)
MIC (Klebsiella pneumoniae): 64 µg/mL (≈ 151 µM)
MIC (Pseudomonas aeruginosa [2]): 64 µg/mL (≈ 151 µM)
MIC (Staphylococcus aureus [3]): 256 µg/mL (≈ 605 µM)
MIC (Staphylococcus aureus [4]): 32 µg/mL (≈ 75.6 µM)
MIC (Staphylococcus aureus [5]): 4 µg/mL (≈ 9.45 µM)
MIC (Pseudomonas aeruginosa [6]): 64 µg/mL (≈ 151 µM)
MIC (Enterococcus faecalis [7]): 64 µg/mL (≈ 151 µM)
MIC (Escherichia coli [8]): 8 µg/mL (≈ 18.9 µM)
MIC (Escherichia coli [9]): 64 µg/mL (≈ 151 µM)

CCn1cc(C(=O)O)c(=O)c2cc(F)c(N3CCN(c4ncc(Br)cn4)CC3)cc21
MIC (Staphylococcus aureus [1]): 128 µg/mL (≈ 269 µM)
MIC (Acinetobacter baumannii): 64 µg/mL (≈ 134 µM)
MIC (Klebsiella pneumoniae): 256 µg/mL (≈ 537 µM)
MIC (Pseudomonas aeruginosa [2]): 8 µg/mL (≈ 16.8 µM)
MIC (Staphylococcus aureus [3]): 8 µg/mL (≈ 16.8 µM)
MIC (Staphylococcus aureus [4]): 64 µg/mL (≈ 134 µM)
MIC (Staphylococcus aureus [5]): 64 µg/mL (≈ 134 µM)
MIC (Pseudomonas aeruginosa [6]): 64 µg/mL (≈ 134 µM)
MIC (Enterococcus faecalis [7]): 64 µg/mL (≈ 134 µM)
MIC (Escherichia coli [8]): 128 µg/mL (≈ 269 µM)
MIC (Escherichia coli [9]): 64 µg/mL (≈ 134 µM)

CCn1cc(C(=O)O)c(=O)c2cc(F)c(N3CCNCC3)cc21 [NORFLOXACIN]
MIC (Staphylococcus aureus [1]): 8 µg/mL (≈ 25.1 µM)
MIC (Acinetobacter baumannii): 2 µg/mL (≈ 6.26 µM)
MIC (Klebsiella pneumoniae): 4 µg/mL (≈ 12.5 µM)
MIC (Pseudomonas aeruginosa [2]): 4 µg/mL (≈ 12.5 µM)
MIC (Staphylococcus aureus [3]): 4 µg/mL (≈ 12.5 µM)
MIC (Staphylococcus aureus [4]): 4 µg/mL (≈ 12.5 µM)
MIC (Staphylococcus aureus [5]): 2 µg/mL (≈ 6.26 µM)
MIC (Pseudomonas aeruginosa [6]): 4 µg/mL (≈ 12.5 µM)
MIC (Enterococcus faecalis [7]): 4 µg/mL (≈ 12.5 µM)
MIC (Escherichia coli [8]): 8 µg/mL (≈ 25.1 µM)
MIC (Escherichia coli [9]): 8 µg/mL (≈ 25.1 µM)

O=C(O)c1cn(C2CC2)c2cc(N3CCN(c4ncc(F)cn4)CC3)c(F)cc2c1=O
MIC (Staphylococcus aureus [1]): 1 µg/mL (≈ 2.34 µM)
MIC (Acinetobacter baumannii): > 256 µg/mL
Ratio (Staphylococcus aureus [24]): 8
MIC (Klebsiella pneumoniae): 128 µg/mL (≈ 299 µM)
MIC (Pseudomonas aeruginosa [2]): 64 µg/mL (≈ 150 µM)
Ratio (Staphylococcus aureus [25]): 2
MIC (Staphylococcus aureus [3]): 8 µg/mL (≈ 18.7 µM)
MIC (Staphylococcus aureus [4]): 32 µg/mL (≈ 74.9 µM)
MIC (Staphylococcus aureus [5]): 8 µg/mL (≈ 18.7 µM)
MIC (Pseudomonas aeruginosa [6]): 256 µg/mL (≈ 599 µM)
MIC (Enterococcus faecalis [7]): 8 µg/mL (≈ 18.7 µM)
MIC (Escherichia coli [8]): 8 µg/mL (≈ 18.7 µM)
MIC (Escherichia coli [9]): 128 µg/mL (≈ 299 µM)

CCn1cc(C(=O)O)c(=O)c2cc(F)c(N3CCN(c4nccc(C)n4)CC3)cc21
MIC (Staphylococcus aureus [1]): 32 µg/mL (≈ 77.8 µM)
MIC (Acinetobacter baumannii): 256 µg/mL (≈ 622 µM)
MIC (Klebsiella pneumoniae): 4 µg/mL (≈ 9.72 µM)
MIC (Pseudomonas aeruginosa [2]): 128 µg/mL (≈ 311 µM)
MIC (Staphylococcus aureus [3]): 4 µg/mL (≈ 9.72 µM)
MIC (Staphylococcus aureus [4]): 16 µg/mL (≈ 38.9 µM)
MIC (Staphylococcus aureus [5]): 4 µg/mL (≈ 9.72 µM)
MIC (Pseudomonas aeruginosa [6]): 16 µg/mL (≈ 38.9 µM)
MIC (Enterococcus faecalis [7]): 1 µg/mL (≈ 2.43 µM)
MIC (Escherichia coli [8]): 1 µg/mL (≈ 2.43 µM)
MIC (Escherichia coli [9]): 64 µg/mL (≈ 156 µM)

CCn1cc(C(=O)O)c(=O)c2cc(F)c(N3CCN(c4ncccn4)CC3)cc21
MIC (Staphylococcus aureus [1]): 2 µg/mL (≈ 5.03 µM)
MIC (Acinetobacter baumannii): 64 µg/mL (≈ 161 µM)
MIC (Klebsiella pneumoniae): 4 µg/mL (≈ 10.1 µM)
MIC (Pseudomonas aeruginosa [2]): 16 µg/mL (≈ 40.3 µM)
MIC (Staphylococcus aureus [3]): 64 µg/mL (≈ 161 µM)
MIC (Staphylococcus aureus [4]): 32 µg/mL (≈ 80.5 µM)
MIC (Aspergillus fumigatus): 2 µg/mL (≈ 5.03 µM)
MIC (Staphylococcus aureus [5]): 8 µg/mL (≈ 20.1 µM)
MIC (Pseudomonas aeruginosa [6]): 128 µg/mL (≈ 322 µM)
MIC (Enterococcus faecalis [7]): 8 µg/mL (≈ 20.1 µM)
MIC (Escherichia coli [8]): 64 µg/mL (≈ 161 µM)
MIC (Escherichia coli [9]): 16 µg/mL (≈ 40.3 µM)
